Reference: publication PMC8909834, “An Orally Bioavailable and Highly Efficacious Inhibitor of CDK9/FLT3 for the Treatment of Acute Myeloid Leukemia” (Cancers, 2022)

Assays:
Assay in all cases: Kinase Hotspot radiolabel assay
Assay type in all cases: biochemical
Conditions in all cases: read-out: % Residual Activity
SYK = target: T1, SYK (Homo sapiens, UniProt P43405)
T1 construct: purchased Reaction Biology Corporation (Kinase HotSpot)
Protocol: (§1) Kinase assay. The ADP Glo^TM kinase assay (Promega, Madison, WI, USA) was used to assess the inhibition by CDDD11-8 of CDKs 1, 2, 4, 6, 7, and 9, as well as the mutant isoforms of FLT3. The assays were performed in accord with the manufacturer’s protocol (Promega) as described previously. Briefly, serial three-fold dilutions of CDDD11-8 were prepared in 100% DMSO from a 2 mM stock solution, followed by 1:40 dilution into Milli-Q water. Subsequently, 1 µL of each sample was incubated with 4 µL of kinase mixture containing a particular CDK enzyme and its substrate, standard kinase buffer [3 mM MgCl2, 50 mM HEPES-NaOH pH 7.5, 3 mM MnCl2, 3 µM Na-orthovanadate, 1 mM dithiothreitol (DTT)], kinase dilution buffer (containing 0.25 mg/mL PEG20,000, 50 mM HEPES-NaOH pH 7.5, 1 mM DTT), and ATP at 37 °C for 30 to 40 min. The final reaction mixture contained 0.5% DMSO in all samples, and the applied kinase concentrations were 1, 1, 10, 40, 20, and 50 nM for CDK1, 2, 4, 6, 7, and 9, respectively. The reaction was stopped by adding ADP-Glo reagent and the mixture was incubated further in the dark at room temperature for 40 min. As a final step, kinase detection reagent was added to each mixture and incubated at room temperature for 30 to 60 min. Luminescence was read using an EnVision® multilabel plate reader (PerkinElmer, Beaconsfield, UK), and half-maximum inhibitory concentrations (IC50) were calculated using a non-linear regression model with a variable slope, plotting log (inhibitor concentration) vs. response using the following formula: Ar%=Bottom+Top−Bottom/1+Inhibitor Concentration/IC50^HillSlope where the relative activity Ar (%) is the signal relative to the controls, IC50 is the half maximum concentration, Hillslope is the steepness of the dose-response curve, Top and Bottom are plateaus reflecting the maximum and minimum in responses on the Y-axis (GraphPad Prism version 7, San Diego, CA, USA). Ki values were calculated from the IC50 using the Cheng−Prusoff equation [32]. Extensive specificity assessment was carried out by Reaction Biology Corporation (Malvern, PA, USA) with 369 kinases using 1 µM CDDD11-8 concentration in a Kinase Hotspot radiolabel assay (for experimental details, please see (Reaction Biology https://www.reactionbiology.com/). Subsequently, Ki values were determined for kinases with greater than 90% inhibition.

CDK9/cyclin K = target: T2, CDK9/cyclin K (Homo sapiens, UniProt P50750)
T2 construct: purchased Reaction Biology Corporation (Kinase HotSpot)
Protocol: as §1

ALK4/ACVR1B = target: T3, ALK4/ACVR1B (Homo sapiens, UniProt P36896)
T3 construct: purchased Reaction Biology Corporation (Kinase HotSpot)
Protocol: as §1

PKCeta = target: T4, PKCeta (Homo sapiens, UniProt P24723)
T4 construct: purchased Reaction Biology Corporation (Kinase HotSpot)
Protocol: as §1

GRK1 = target: T5, GRK1 (Homo sapiens, UniProt Q15835)
T5 construct: purchased Reaction Biology Corporation (Kinase HotSpot)
Protocol: as §1

ULK3 = target: T6, ULK3 (Homo sapiens, UniProt Q6PHR2)
T6 construct: purchased Reaction Biology Corporation (Kinase HotSpot)
Protocol: as §1

DCAMKL2 = target: T7, DCAMKL2 (Homo sapiens, UniProt Q8N568)
T7 construct: purchased Reaction Biology Corporation (Kinase HotSpot)
Protocol: as §1

MSSK1/STK23 = target: T8, MSSK1/STK23 (Homo sapiens, UniProt Q9UPE1)
T8 construct: purchased Reaction Biology Corporation (Kinase HotSpot)
Protocol: as §1

ERN1/IRE1 = target: T9, ERN1/IRE1 (Homo sapiens, UniProt O75460)
T9 construct: purchased Reaction Biology Corporation (Kinase HotSpot)
Protocol: as §1

PIM3 = target: T10, PIM3 (Homo sapiens, UniProt Q86V86)
T10 construct: purchased Reaction Biology Corporation (Kinase HotSpot)
Protocol: as §1

FGFR4 = target: T11, FGFR4 (Homo sapiens, UniProt P22455)
T11 construct: purchased Reaction Biology Corporation (Kinase HotSpot)
Protocol: as §1

TNIK = target: T12, TNIK (Homo sapiens, UniProt Q9UKE5)
T12 construct: purchased Reaction Biology Corporation (Kinase HotSpot)
Protocol: as §1

SIK1 = target: T13, SIK1 (Homo sapiens, UniProt P57059)
T13 construct: purchased Reaction Biology Corporation (Kinase HotSpot)
Protocol: as §1

ABL1 = target: T14, ABL1 (Homo sapiens, UniProt P00519)
T14 construct: purchased Reaction Biology Corporation (Kinase HotSpot)
Protocol: as §1

CDK7/cyclin H = target: T15, CDK7/cyclin H (Homo sapiens, UniProt P50613)
T15 construct: purchased Reaction Biology Corporation (Kinase HotSpot)
Protocol: as §1

IRAK4 = target: T16, IRAK4 (Homo sapiens, UniProt Q9NWZ3)
T16 construct: purchased Reaction Biology Corporation (Kinase HotSpot)
Protocol: as §1

CAMK2a = target: T17, CAMK2a (Homo sapiens, UniProt Q9UQM7)
T17 construct: purchased Reaction Biology Corporation (Kinase HotSpot)
Protocol: as §1

NIM1 = target: T18, NIM1 (Homo sapiens, UniProt Q8IY84)
T18 construct: purchased Reaction Biology Corporation (Kinase HotSpot)
Protocol: as §1

EPHB1 = target: T19, EPHB1 (Homo sapiens, UniProt P54762)
T19 construct: purchased Reaction Biology Corporation (Kinase HotSpot)
Protocol: as §1

CDK17/cyclin Y (PCTK2) = target: T20, CDK17/cyclin Y (PCTK2) (Homo sapiens, UniProt Q00537)
T20 construct: purchased Reaction Biology Corporation (Kinase HotSpot)
Protocol: as §1

FLT1/VEGFR1 = target: T21, FLT1/VEGFR1 (Homo sapiens, UniProt P17948)
T21 construct: purchased Reaction Biology Corporation (Kinase HotSpot)
Protocol: as §1

MEK1 = target: T22, MEK1 (Homo sapiens, UniProt Q02750)
T22 construct: purchased Reaction Biology Corporation (Kinase HotSpot)
Protocol: as §1

TRKB = target: T23, TRKB (Homo sapiens, UniProt Q16620)
T23 construct: purchased Reaction Biology Corporation (Kinase HotSpot)
Protocol: as §1

TXK = target: T24, TXK (Homo sapiens, UniProt P42681)
T24 construct: purchased Reaction Biology Corporation (Kinase HotSpot)
Protocol: as §1

ACK1 = target: T25, ACK1 (Homo sapiens, UniProt Q07912)
T25 construct: purchased Reaction Biology Corporation (Kinase HotSpot)
Protocol: as §1

LOK/STK10 = target: T26, LOK/STK10 (Homo sapiens, UniProt O94804)
T26 construct: purchased Reaction Biology Corporation (Kinase HotSpot)
Protocol: as §1

RET = target: T27, RET (Homo sapiens, UniProt P07949)
T27 construct: purchased Reaction Biology Corporation (Kinase HotSpot)
Protocol: as §1

FRK/PTK5 = target: T28, FRK/PTK5 (Homo sapiens, UniProt P42685)
T28 construct: purchased Reaction Biology Corporation (Kinase HotSpot)
Protocol: as §1

STK33 = target: T29, STK33 (Homo sapiens, UniProt Q9BYT3)
T29 construct: purchased Reaction Biology Corporation (Kinase HotSpot)
Protocol: as §1

BRSK1 = target: T30, BRSK1 (Homo sapiens, UniProt Q8TDC3)
T30 construct: purchased Reaction Biology Corporation (Kinase HotSpot)
Protocol: as §1

T18 sequence (Q8IY84 whole entry): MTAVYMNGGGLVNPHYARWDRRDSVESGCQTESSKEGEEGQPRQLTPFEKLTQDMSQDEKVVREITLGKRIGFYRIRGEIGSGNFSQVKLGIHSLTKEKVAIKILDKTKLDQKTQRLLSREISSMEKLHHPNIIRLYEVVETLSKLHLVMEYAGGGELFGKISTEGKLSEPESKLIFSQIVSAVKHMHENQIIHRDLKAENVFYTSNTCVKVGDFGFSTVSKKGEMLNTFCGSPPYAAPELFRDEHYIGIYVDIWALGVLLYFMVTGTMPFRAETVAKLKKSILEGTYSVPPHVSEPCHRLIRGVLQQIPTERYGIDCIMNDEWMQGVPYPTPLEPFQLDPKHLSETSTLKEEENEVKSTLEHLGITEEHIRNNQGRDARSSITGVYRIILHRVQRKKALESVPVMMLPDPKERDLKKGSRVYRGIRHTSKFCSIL
T2 sequence (P50750 whole entry): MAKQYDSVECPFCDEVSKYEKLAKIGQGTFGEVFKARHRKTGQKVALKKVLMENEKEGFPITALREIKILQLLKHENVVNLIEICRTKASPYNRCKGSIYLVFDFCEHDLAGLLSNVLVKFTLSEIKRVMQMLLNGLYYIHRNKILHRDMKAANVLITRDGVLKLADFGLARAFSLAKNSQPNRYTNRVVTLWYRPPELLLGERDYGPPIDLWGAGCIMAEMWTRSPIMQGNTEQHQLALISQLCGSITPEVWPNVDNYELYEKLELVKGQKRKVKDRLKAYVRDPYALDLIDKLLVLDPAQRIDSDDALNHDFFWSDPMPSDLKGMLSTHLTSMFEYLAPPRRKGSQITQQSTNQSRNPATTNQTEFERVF
T2 sequence (O75909 whole entry partner): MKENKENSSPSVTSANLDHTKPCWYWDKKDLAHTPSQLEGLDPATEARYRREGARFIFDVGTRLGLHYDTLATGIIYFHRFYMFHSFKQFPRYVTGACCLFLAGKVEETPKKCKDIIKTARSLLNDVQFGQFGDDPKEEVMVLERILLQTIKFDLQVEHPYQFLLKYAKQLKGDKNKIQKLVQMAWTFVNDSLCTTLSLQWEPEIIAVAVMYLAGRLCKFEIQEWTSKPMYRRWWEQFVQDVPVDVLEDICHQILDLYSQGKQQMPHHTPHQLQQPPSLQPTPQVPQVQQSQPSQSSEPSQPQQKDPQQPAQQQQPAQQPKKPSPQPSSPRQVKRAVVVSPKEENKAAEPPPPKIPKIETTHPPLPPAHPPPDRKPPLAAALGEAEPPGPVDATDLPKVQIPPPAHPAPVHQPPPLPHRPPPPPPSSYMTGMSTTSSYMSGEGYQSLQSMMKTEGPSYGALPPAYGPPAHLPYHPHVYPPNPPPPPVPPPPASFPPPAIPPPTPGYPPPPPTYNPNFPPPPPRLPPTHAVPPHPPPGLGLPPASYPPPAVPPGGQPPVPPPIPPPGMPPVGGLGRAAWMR
T17 sequence (Q9UQM7 whole entry): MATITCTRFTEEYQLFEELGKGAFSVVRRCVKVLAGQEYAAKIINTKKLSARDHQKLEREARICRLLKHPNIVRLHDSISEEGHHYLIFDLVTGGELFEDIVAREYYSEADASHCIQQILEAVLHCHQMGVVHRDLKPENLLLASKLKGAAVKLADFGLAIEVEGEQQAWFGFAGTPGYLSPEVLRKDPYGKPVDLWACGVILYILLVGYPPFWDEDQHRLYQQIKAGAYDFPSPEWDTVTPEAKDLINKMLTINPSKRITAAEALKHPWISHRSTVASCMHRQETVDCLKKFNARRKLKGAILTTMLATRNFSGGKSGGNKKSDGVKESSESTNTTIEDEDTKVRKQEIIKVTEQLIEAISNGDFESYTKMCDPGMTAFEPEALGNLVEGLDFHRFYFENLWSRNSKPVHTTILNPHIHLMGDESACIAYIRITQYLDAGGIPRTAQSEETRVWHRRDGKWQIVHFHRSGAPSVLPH
T6 sequence (Q6PHR2 whole entry): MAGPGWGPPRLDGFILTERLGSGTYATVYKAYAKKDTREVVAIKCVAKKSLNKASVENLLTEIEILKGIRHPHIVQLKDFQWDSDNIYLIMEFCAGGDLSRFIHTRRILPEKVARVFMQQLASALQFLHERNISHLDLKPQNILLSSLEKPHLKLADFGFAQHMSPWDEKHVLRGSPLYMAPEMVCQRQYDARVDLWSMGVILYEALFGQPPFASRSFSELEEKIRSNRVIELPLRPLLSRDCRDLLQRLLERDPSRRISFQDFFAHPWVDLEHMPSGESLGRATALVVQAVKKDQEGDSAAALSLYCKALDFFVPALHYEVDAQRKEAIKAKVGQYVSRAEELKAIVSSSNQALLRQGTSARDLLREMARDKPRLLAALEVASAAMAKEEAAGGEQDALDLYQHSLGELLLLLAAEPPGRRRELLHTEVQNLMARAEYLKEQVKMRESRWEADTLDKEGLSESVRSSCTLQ
T9 sequence (O75460 19-977): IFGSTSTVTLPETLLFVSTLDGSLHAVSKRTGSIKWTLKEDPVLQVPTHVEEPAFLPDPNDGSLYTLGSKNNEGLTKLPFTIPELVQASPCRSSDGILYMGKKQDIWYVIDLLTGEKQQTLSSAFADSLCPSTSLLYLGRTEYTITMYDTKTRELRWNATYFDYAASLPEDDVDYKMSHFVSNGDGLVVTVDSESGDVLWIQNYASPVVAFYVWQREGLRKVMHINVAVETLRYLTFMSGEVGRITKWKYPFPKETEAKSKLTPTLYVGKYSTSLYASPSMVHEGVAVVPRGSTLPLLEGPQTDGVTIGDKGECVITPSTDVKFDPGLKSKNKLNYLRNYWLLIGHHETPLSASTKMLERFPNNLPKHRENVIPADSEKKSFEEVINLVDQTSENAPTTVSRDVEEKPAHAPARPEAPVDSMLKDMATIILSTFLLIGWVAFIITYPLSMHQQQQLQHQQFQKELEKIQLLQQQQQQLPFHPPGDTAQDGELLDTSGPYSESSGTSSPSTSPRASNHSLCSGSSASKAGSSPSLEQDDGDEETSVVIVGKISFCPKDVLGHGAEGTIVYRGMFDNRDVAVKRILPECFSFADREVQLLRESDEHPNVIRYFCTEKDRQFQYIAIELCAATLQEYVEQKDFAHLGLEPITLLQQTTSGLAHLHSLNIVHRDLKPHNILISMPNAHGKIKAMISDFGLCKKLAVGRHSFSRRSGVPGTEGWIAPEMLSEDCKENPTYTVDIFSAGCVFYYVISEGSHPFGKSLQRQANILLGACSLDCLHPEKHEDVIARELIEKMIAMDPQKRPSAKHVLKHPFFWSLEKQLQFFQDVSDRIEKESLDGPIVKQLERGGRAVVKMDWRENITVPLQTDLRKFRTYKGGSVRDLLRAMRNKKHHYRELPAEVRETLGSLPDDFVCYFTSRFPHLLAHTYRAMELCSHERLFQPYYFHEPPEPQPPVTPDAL
T20 sequence (Q00537 whole entry): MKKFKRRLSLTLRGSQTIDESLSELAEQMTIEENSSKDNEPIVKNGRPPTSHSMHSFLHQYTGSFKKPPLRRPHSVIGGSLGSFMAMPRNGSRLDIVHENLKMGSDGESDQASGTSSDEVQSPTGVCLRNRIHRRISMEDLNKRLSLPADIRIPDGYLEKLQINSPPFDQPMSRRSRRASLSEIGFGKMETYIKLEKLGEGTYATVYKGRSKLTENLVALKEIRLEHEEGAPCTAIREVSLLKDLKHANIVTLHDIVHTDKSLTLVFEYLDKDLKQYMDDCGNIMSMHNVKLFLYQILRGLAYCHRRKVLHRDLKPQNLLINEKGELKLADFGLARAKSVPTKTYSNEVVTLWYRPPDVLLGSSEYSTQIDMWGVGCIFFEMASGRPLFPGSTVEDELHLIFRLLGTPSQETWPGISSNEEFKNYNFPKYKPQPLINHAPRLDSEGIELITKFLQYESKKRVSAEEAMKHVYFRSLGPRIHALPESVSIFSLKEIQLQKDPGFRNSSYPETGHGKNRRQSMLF
T20 sequence (Q8ND76 whole entry partner): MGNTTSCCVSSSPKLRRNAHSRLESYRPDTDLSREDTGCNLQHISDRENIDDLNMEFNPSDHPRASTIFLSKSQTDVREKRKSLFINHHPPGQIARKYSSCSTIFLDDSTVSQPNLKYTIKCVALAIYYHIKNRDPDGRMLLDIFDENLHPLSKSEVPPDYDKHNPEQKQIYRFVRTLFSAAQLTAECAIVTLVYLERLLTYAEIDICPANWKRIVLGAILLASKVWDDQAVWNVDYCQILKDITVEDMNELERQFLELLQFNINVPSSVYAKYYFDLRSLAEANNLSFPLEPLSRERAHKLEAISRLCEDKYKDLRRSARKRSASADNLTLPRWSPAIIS
T13 sequence (P57059 whole entry): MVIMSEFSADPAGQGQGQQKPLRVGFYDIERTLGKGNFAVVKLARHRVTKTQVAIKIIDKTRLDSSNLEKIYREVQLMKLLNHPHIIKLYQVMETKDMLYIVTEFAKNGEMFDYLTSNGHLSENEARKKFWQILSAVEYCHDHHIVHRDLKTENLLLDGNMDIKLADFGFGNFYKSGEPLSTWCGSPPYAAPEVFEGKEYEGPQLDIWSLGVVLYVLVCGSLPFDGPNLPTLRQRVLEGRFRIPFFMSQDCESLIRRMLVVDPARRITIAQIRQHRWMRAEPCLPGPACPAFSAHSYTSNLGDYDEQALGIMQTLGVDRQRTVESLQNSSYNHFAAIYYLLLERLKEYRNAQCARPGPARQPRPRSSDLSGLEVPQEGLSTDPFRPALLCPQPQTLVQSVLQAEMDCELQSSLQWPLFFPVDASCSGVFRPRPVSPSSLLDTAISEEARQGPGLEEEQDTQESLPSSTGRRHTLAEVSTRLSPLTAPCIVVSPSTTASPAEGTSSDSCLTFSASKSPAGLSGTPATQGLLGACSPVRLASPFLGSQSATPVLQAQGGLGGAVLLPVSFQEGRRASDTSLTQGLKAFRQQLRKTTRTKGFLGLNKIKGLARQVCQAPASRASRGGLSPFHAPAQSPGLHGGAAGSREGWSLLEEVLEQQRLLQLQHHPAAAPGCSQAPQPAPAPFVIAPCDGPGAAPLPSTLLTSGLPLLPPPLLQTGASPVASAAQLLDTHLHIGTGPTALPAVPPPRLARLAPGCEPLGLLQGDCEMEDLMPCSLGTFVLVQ

Cc1cnc(N[C@H]2CC[C@H](N)CC2)nc1-c1cnc2ccc(-c3ccccc3)cn12 [CDDD11-8]
remaining activity at 1 µM (SYK): 13.4% | remaining activity at 1 µM (CDK9/cyclin K): 6.4% | remaining activity at 1 µM (ALK4/ACVR1B): 95.3% | remaining activity at 1 µM (PKCeta): 47.3% | remaining activity at 1 µM (GRK1): 65% | remaining activity at 1 µM (ULK3): 82.8% | remaining activity at 1 µM (DCAMKL2): 108% | remaining activity at 1 µM (MSSK1/STK23): 90.8% | remaining activity at 1 µM (ERN1/IRE1): 41.8% | remaining activity at 1 µM (PIM3): 72.6% | remaining activity at 1 µM (FGFR4): 104% | remaining activity at 1 µM (TNIK): 4.38% | remaining activity at 1 µM (SIK1): 39.7% | remaining activity at 1 µM (ABL1): 76.8% | remaining activity at 1 µM (CDK7/cyclin H): 63.7% | remaining activity at 1 µM (IRAK4): 59.2% | remaining activity at 1 µM (CAMK2a): 20.3% | remaining activity at 1 µM (NIM1): 89.9% | remaining activity at 1 µM (EPHB1): 88.1% | remaining activity at 1 µM (CDK17/cyclin Y (PCTK2)): 34.1% | remaining activity at 1 µM (FLT1/VEGFR1): 53.4% | remaining activity at 1 µM (MEK1): 98.9% | remaining activity at 1 µM (TRKB): 10.8% | remaining activity at 1 µM (TXK): 60.4% | remaining activity at 1 µM (ACK1): 64.5% | remaining activity at 1 µM (LOK/STK10): 55.8% | remaining activity at 1 µM (RET): 84.4% | remaining activity at 1 µM (FRK/PTK5): 97.1% | remaining activity at 1 µM (STK33): 70.3% | remaining activity at 1 µM (BRSK1): 97.4%
